Values after ≈ are worked out from the molar mass of the structure shown.
Tests used:
[1] = Aqueous (kinetic, nephelometric) solubility in PBS; assay type: physicochemical
Protocol: Aliquots of 5 µL of 20.00 mM, 10.00 mM, 5.00 mM, 2.50 mM, 1.25 mM, 0.63 mM, 0.31 mM, 0.16 mM DMSO stock solutions of the control (highly soluble 2′-deoxy-5-fluorouridine and insoluble raloxifen hydrochloride) and the test compounds were loaded in 96-well microplates with clear flat bottoms in duplicates. Then, 250 µL of PBS was dispensed into each well using a Multidrop Combi dispenser to reach the concentrations of 400.0 µM, 200.0 µM, 100.0 µM, 50.0 µM, 25.0 µM, 12.5 µM, 6.25 µM, 3.125 µM for each compound with 2% final DMSO. Then, the resulting solutions were incubated for 15 min at room temperature. The effective range of this assay is approximately 5–200 µM. The solubility of each compound was calculated using the dedicated fitting algorithm. The physical base of nephelometric titration fitting is based on the quick increase in turbidity when a concentration of the tested compound reaches its solubility level. An intersection of the regression line of the high-level turbidity points with the calculated baseline was plotted for each compound. The baseline is a linear regression line plotted for fully soluble control compound DOFU. Each concentration point signal of the test article was compared with the corresponding signal of DOFU. […]

Caco-2 permeability = assay type: in vitro ADME; settings: human, Caco-2, pH 7.4
Protocol: Caco-2 cells were cultured in 75 cm^2 flasks to 80–90% confluence according to the ATCC and Millipore recommendations in a humidified atmosphere at 37 °C and 5% CO2. Cells were detached with a trypsin/EDTA solution, resuspended in the complete medium containing DMEM high glucose ([…]) with L-glutamine (4 mM) supplemented with 10% heat-inactivated Fetal Bovine Serum, 1% non-essential amino acids, and 730 nM puromycin, and seeded at a density of 5 × 10^5 cells in a 75 cm^2 flask. After 5 days, cells were trypsinized and resuspended in the complete medium to a final concentration of 600 × 10^3 cells/mL. Of the cell suspension, 400 µL was added to each well of an HTS 24-Multiwell Insert System and 25 mL of prewarmed complete medium was added to the feeder tray. Caco-2 cells were incubated in the Multiwell Insert System for 6–10 days before the transport experiments. The medium in the filter plate and feeder tray was refreshed every other day. Prior to the transport experiment, the integrity of the monolayer was verified by measuring the transepithelial electrical resistance (TEER) for every well using a Millicell-ERS system ohm meter. The final TEER values were within the range of 150–600 Ω × cm^2, as required for the assay conditions. The 24-well insert plate was removed from its feeder plate and placed in a new sterile 24-well transport analysis plate. The inserts were washed with PBS after medium aspiration. Ketoprofen, atenolol, digoxin, and quinidine were used as reference compounds.
To determine transport rates in the basolateral (B)-to-apical (A) direction, 1000 μL of the test compound solutions was added into the wells of the transport analysis plate, and the wells in the filter plate were filled with 300 μL of buffer (apical compartment).
The effect of the inhibitor on the Pgp-mediated transport of the tested compounds was assessed by determining the bidirectional transport in the presence or absence of verapamil. The Caco-2 cells were preincubated for 30 min at 37 °C with 100 μM of verapamil in both apical and basolateral compartments. After removal of the preincubation medium, the test compounds with verapamil (100 μM) in transport buffer were added in donor wells, while the receiver wells were filled with the appropriate volume of transport buffer with 100 μM of verapamil. The final amounts of test and reference compounds were 10 μM each. The plates were incubated for 90 min at 37 °C under continuous shaking at 100 rpm. Aliquots of 75 μL were taken from the donor and receiver compartments for LC–MS/MS analysis. All samples were mixed with 2 volumes of acetonitrile followed by protein sedimentation by centrifuging at 10,000 rpm for 10 min. Supernatants were analyzed using the HPLC system coupled with a tandem mass spectrometer.

O=C(NC12CC3CC(CC(C3)C1)C2)NS(=O)(=O)c1ccc(OC(F)(F)F)cc1 [Compound 4f]
solubility at 15 min ([1]; PBS, pH 7.4, aqueous buffer, kinetic from dmso stock, read-out: Aq. Solubility pH = 7.4): 53 µg/mL (≈ 127 µM) | aqueous solubility (in words) ([1]; pH 7.4): moderate aqueous solubility | Papp A→B at 90 min, 10 µM (Caco-2 permeability; A to B, read-out: Caco-2 Permeability Apical to Basal (Papp)): 14.9 ×10⁻⁶ cm/s | Papp B→A at 90 min, 10 µM (Caco-2 permeability; B to A, read-out: Caco-2 Permeability Basal to Apical (Papp)): 12.6 ×10⁻⁶ cm/s
